According to patent US9073940B2, “Tricyclic pyrazol amine derivatives” (MERCK SERONO SA, priority 2009, dated 2015):

Test system: 4 PI3K isoforms (Human recombinant GST-PI3K)
Test: PI3K scintillation proximity assay, best IC50 obtained with the four isoforms (alpha, beta, delta, gamma)
Format: biochemical
Conditions: best IC50 obtained with the four isoforms of PI3K; read-out: Best potency measured on the 4 PI3K isoforms

Compound O=C(c1nn(-c2ccc(CO)cc2)c2c1CS(=O)(=O)c1ccccc1-2)N1CCOCC1 [Example 153, {4-[3-(Morpholin-4-ylcarbonyl)-5,5-dioxidothiochromeno[4,3-c]pyrazol-1(4H)-yl]phenyl}methanol] has an IC50 of 1060 nM.

O=C(c1nn(-c2cccc(N3CCOCC3)c2)c2c1CS(=O)(=O)c1ccccc1-2)N1CCOCC1 [Example 154, 3-(Morpholin-4-ylcarbonyl)-1-(3-morpholin-4-ylphenyl)-1,4-dihydrothiochromeno[4,3-c]pyrazole 5,5-dioxide] was tested, and the IC50 was 673 nM.

With O=C(c1nn(-c2ccc(N3CCOCC3)cc2)c2c1CS(=O)(=O)c1ccccc1-2)N1CCOCC1 [Example 155, 3-(Morpholin-4-ylcarbonyl)-1-(4-morpholin-4-ylphenyl)-1,4-dihydrothiochromeno[4,3-c]pyrazole 5,5-dioxide] the IC50 was 3940 nM.

COCCNc1ccc2c(c1)-c1c(c(C(=O)N3CCOCC3)nn1-c1ccccc1)CS2(=O)=O [Example 156, N-(2-Methoxyethyl)-3-(morpholin-4-ylcarbonyl)-1-phenyl-1,4-dihydrothiochromeno[4,3-c]pyrazol-8-amine 5,5-dioxide] gave an IC50 of 902 nM.

In the case of O=C(c1nn(-c2cccc(-c3ccccc3)c2)c2c1CS(=O)(=O)c1ccccc1-2)N1CCOCC1 [Example 157, 1-Biphenyl-3-yl-3-(morpholin-4-ylcarbonyl)-1,4-dihydrothiochromeno[4,3-c]pyrazole 5,5-dioxide], the IC50 is reported as 764 nM.

Work on O=C(c1nn(-c2ccccc2)c2c1CS(=O)(=O)c1cc(C(F)(F)F)ccc1-2)N1CCOCC1 [Example 158, 3-(Morpholin-4-ylcarbonyl)-1-phenyl-7-(trifluoromethyl)-1,4-dihydrothiochromeno[4,3-c]pyrazole 5,5-dioxide] yielded an IC50 of 3060 nM.

COC1CCCN(C(=O)c2cccc(-n3nc(C(=O)N4CCOCC4)c4c3-c3ccccc3S(=O)(=O)C4)c2)C1 (stereo not drawn) [Example 159, 1-{3-[(3-Methoxypiperidin-1-yl)carbonyl]phenyl}-3-(morpholin-4-ylcarbonyl)-1,4-dihydrothiochromeno[4,3-c]pyrazole 5,5-dioxide] gave an IC50 of 246 nM.

Work on Cc1ccccc1-c1cccc(-n2nc(C(=O)N3CCOCC3)c3c2-c2ccccc2S(=O)(=O)C3)c1 [Example 160, 1-(2′-Methylbiphenyl-3-yl)-3-(morpholin-4-ylcarbonyl)-1,4-dihydrothiochromeno[4,3-c]pyrazole 5,5-dioxide] yielded an IC50 of 1080 nM.

Work on Cc1ccccc1-c1ccc(-n2nc(C(=O)N3CCOCC3)c3c2-c2ccccc2S(=O)(=O)C3)cc1 [Example 161, 1-(2′-Methylbiphenyl-4-yl)-3-(morpholin-4-ylcarbonyl)-1,4-dihydrothiochromeno[4,3-c]pyrazole 5,5-dioxide] yielded an IC50 of 6470 nM.

For O=C(c1nn(-c2ccccc2)c2c1CS(=O)(=O)c1ccc(CN3CCOCC3)cc1-2)N1CCOCC1 [Example 162, 3-(Morpholin-4-ylcarbonyl)-8-(morpholin-4-ylmethyl)-1-phenyl-1,4-dihydrothiochromeno[4,3-c]pyrazole 5,5-dioxide], the IC50 was 1620 nM.

With CC1CN(C(=O)c2nn(-c3ccccc3)c3c2CS(=O)(=O)c2ccccc2-3)CCO1 (stereo not drawn) [Example 163, 3-[(2-Methylmorpholin-4-yl)carbonyl]-1-phenyl-1,4-dihydrothiochromeno[4,3-c]pyrazole 5,5-dioxide] the IC50 was 2160 nM.

With Nc1ccc2c(c1)S(=O)(=O)Cc1c(C(=O)N3CCOCC3)nn(-c3ccccc3)c1-2 [Example 165, 3-(Morpholin-4-ylcarbonyl)-1-phenyl-1,4-dihydrothiochromeno[4,3-c]pyrazol-7-amine 5,5-dioxide] the IC50 was 1130 nM.

In the case of O=C(c1nn(-c2cccc(Nc3ccccc3)c2)c2c1CS(=O)(=O)c1ccccc1-2)N1CCOCC1 [Example 166, {3-[3-(Morpholin-4-ylcarbonyl)-5,5-dioxidothiochromeno[4,3-c]pyrazol-1 (4H)-yl]phenyl}phenylamine], the IC50 is reported as 2700 nM.

In the case of O=C(c1nn(-c2ccc(CN3CCC(F)CC3)cc2)c2c1CS(=O)(=O)c1ccccc1-2)N1CCOCC1 [Example 167, 1-{4-[(4-Fluoropiperidin-1-yl)methyl]phenyl}-3-(morpholin-4-ylcarbonyl)-1,4-dihydrothiochromeno[4,3-c]pyrazole 5,5-dioxide], the IC50 is reported as 247 nM.

O=C(c1nn(-c2ccc(CN3CCCCC3)cc2)c2c1CS(=O)(=O)c1ccccc1-2)N1CCOCC1 [Example 169, 3-(Morpholin-4-ylcarbonyl)-1-[4-(piperidin-1-ylmethyl)phenyl]-1,4-dihydrothiochromeno[4,3-c]pyrazole 5,5-dioxide] gave an IC50 of 110 nM.

Work on O=C(c1nn(C2CCC(F)(F)CC2)c2c1CS(=O)(=O)c1ccccc1-2)N1CCOCC1 [Example 170, 1-(4,4-Difluorocyclohexyl)-3-(morpholin-4-ylcarbonyl)-1,4-dihydrothiochromeno[4,3-c]pyrazole 5,5-dioxide] yielded an IC50 of 386 nM.

Work on CC1(C)CCCC(n2nc(C(=O)N3CCOCC3)c3c2-c2ccccc2S(=O)(=O)C3)C1 (stereo not drawn) [Example 171, 1-(3,3-Dimethylcyclohexyl)-3-(morpholin-4-ylcarbonyl)-1,4-dihydrothiochromeno[4,3-c]pyrazole 5,5-dioxide] yielded an IC50 of 498 nM.

For COCCCN1CCCC(n2nc(C(=O)N3CCOCC3)c3c2-c2ccccc2S(=O)(=O)C3)C1 (stereo not drawn) [Example 172, 1-[1-(3-Methoxypropyl)piperidin-3-yl]-3-(morpholin-4-ylcarbonyl)-1,4-dihydrothiochromeno[4,3-c]pyrazole 5,5-dioxide], the IC50 was 140 nM.

CC(C)CCN1CCCC(n2nc(C(=O)N3CCOCC3)c3c2-c2ccccc2S(=O)(=O)C3)C1 (stereo not drawn) [Example 173, 1-[1-(3-Methylbutyl)piperidin-3-yl]-3-(morpholin-4-ylcarbonyl)-1,4-dihydrothiochromeno[4,3-c]pyrazole 5,5-dioxide] gave an IC50 of 138 nM.

O=C(c1nn(C2CCCN(Cc3ccccc3)C2)c2c1CS(=O)(=O)c1ccccc1-2)N1CCOCC1 (stereo not drawn) [Example 174, 1-(1-Benzylpiperidin-3-yl)-3-(morpholin-4-ylcarbonyl)-1,4-dihydrothiochromeno[4,3-c]pyrazole 5,5-dioxide] gave an IC50 of 540 nM.

O=C(c1nn(C2CCCN(CCN3CCOCC3)C2)c2c1CS(=O)(=O)c1ccccc1-2)N1CCOCC1 (stereo not drawn) [Example 175, 3-(Morpholin-4-ylcarbonyl)-1-[1-(2-morpholin-4-ylethyl)piperidin-3-yl]-1,4-dihydrothiochromeno[4,3-c]pyrazole 5,5-dioxide] showed an IC50 of 122 nM.

CN(C)c1cccc(-n2nc(C(=O)N3CCOCC3)c3c2-c2ccccc2S(=O)(=O)C3)c1 [Example 177, N,N-Dimethyl-3-[3-(morpholin-4-ylcarbonyl)-5,5-dioxidothiochromeno[4,3-c]pyrazol-1 (4H)-yl]aniline] was tested, and the IC50 was 4720 nM.

For O=C(c1nn(-c2cccc(CN3CCCCC3)c2)c2c1CS(=O)(=O)c1ccccc1-2)N1CCOCC1 [Example 178, 3-(Morpholin-4-ylcarbonyl)-1-[3-(piperidin-1-ylmethyl)phenyl]-1,4-dihydrothiochromeno[4,3-c]pyrazole 5,5-dioxide], the IC50 was 394 nM.

In the case of CN(C)Cc1cccc(-n2nc(C(=O)N3CCOCC3)c3c2-c2ccccc2S(=O)(=O)C3)c1 [Example 179, N,N-Dimethyl-1-{3-[3-(morpholin-4-ylcarbonyl)-5,5-dioxidothiochromeno[4,3-c]pyrazol-1 (4H)-yl]phenyl}methanamine], the IC50 is reported as 1110 nM.

For CS(=O)(=O)Nc1cccc(-n2nc(C(=O)N3CCOCC3)c3c2-c2ccccc2S(=O)(=O)C3)c1 [Example 180, N-{3-[3-(Morpholin-4-ylcarbonyl)-5,5-dioxidothiochromeno[4,3-c]pyrazol-1 (4H)-yl]phenyl)methanesulfonamide], the IC50 was 1780 nM.

Compound O=C(c1nn(-c2cccc(N3CCCC3)c2)c2c1CS(=O)(=O)c1ccccc1-2)N1CCOCC1 [Example 181, 3-(Morpholin-4-ylcarbonyl)-1-(3-pyrrolidin-1-ylphenyl)-1,4-dihydrothiochromeno[4,3-c]pyrazole 5,5-dioxide] has an IC50 of 4950 nM.

Compound Cc1nnc(-c2cccc(-n3nc(C(=O)N4CCOCC4)c4c3-c3ccccc3S(=O)(=O)C4)c2)o1 [Example 182, 1-[3-(5-Methyl-1,3,4-oxadiazol-2-yl)phenyl]-3-(morpholin-4-ylcarbonyl)-1,4-dihydrothiochromeno[4,3-c]pyrazole 5,5-dioxide] has an IC50 of 1200 nM.

Compound Cc1nnc(-c2cccc(-n3nc(C(=O)N4CCOCC4)c4c3-c3ccccc3S(=O)(=O)C4)c2)s1 [Example 183, 1-[3-(5-Methyl-1,3,4-thiadiazol-2-yl)phenyl]-3-(morpholin-4-ylcarbonyl)-1,4-dihydrothiochromeno[4,3-c]pyrazole 5,5-dioxide] has an IC50 of 661 nM.

Work on Cc1noc(C)c1-c1cccc(-n2nc(C(=O)N3CCOCC3)c3c2-c2ccccc2S(=O)(=O)C3)c1 [Example 184, 1-[3-(3,5-Dimethylisoxazol-4-yl)phenyl]-3-(morpholin-4-ylcarbonyl)-1,4-dihydrothiochromeno[4,3-c]pyrazole 5,5-dioxide] yielded an IC50 of 300 nM.

In the case of Cn1cc(-c2cccc(-n3nc(C(=O)N4CCOCC4)c4c3-c3ccccc3S(=O)(=O)C4)c2)cn1 [Example 185, 1-[3-(1-Methyl-1H-pyrazol-4-yl)phenyl]-3-(morpholin-4-ylcarbonyl)-1,4-dihydrothiochromeno[4,3-c]pyrazole 5,5-dioxide], the IC50 is reported as 184 nM.

Nc1ncc(-c2cccc(-n3nc(C(=O)N4CCOCC4)c4c3-c3ccccc3S(=O)(=O)C4)c2)cn1 [Example 186, 5-{3-[3-(Morpholin-4-ylcarbonyl)-5,5-dioxidothiochromeno[4,3-c]pyrazol-1 (4H)-yl]phenyl}pyrimidin-2-amine] was tested, and the IC50 was 454 nM.

Compound O=C(c1nn(-c2cccc(-c3ccncc3)c2)c2c1CS(=O)(=O)c1ccccc1-2)N1CCOCC1 [Example 187, 3-(Morpholin-4-ylcarbonyl)-1-(3-pyridin-4-ylphenyl)-1,4-dihydrothiochromeno[4,3-c]pyrazole 5,5-dioxide] has an IC50 of 193 nM.

With O=C(c1nn(-c2cccc(-c3cnn(CCN4CCOCC4)c3)c2)c2c1CS(=O)(=O)c1ccccc1-2)N1CCOCC1 [Example 188, 3-(Morpholin-4-ylcarbonyl)-1-{3-[1-(2-morpholin-4-ylethyl)-1H-pyrazol-4-yl]phenyl)-1,4-dihydrothiochromeno[4,3-c]pyrazole 5,5-dioxide] the IC50 was 338 nM.
